Experimental data reported in patent US12508300B2, “Acylated GLP-1 derivative” (Sciwind Biosciences Co., Ltd., priority 2019, dated 2025).
*1 amine or outer side, *2 acyl side, *3 side chain or, on linkers, in order; H or OH if unused. Where a SMILES comes first, the peptide text is derived from it. Side-chain parts run from the residue outwards. The star is where a group is joined. C18 diacid = O=C(O)CCCCCCCCCCCCCCCCC(=O)*; γGlu = O=C(O)[C@H](CCC(=O)[*:2])N[*:1]; AEEA = NCCOCCOCC(=O)O

Tests used:
[1] = molecular target: T1, GLP1R (Homo sapiens, UniProt P43220); test: In vitro activity determination in HEK293/CRE-Luc/GLP1R cells (luciferase reporter); assay type: cell-based
T1 construct: expressed in transfected cells; host or cells: HEK293
Experimental: Based on the fact that GLP-1 may bind to the receptor on the cell membrane, the HEK293/CRE-Luc/GLPIR cell line is constructed, the CAMP response elements (CRE) are activated through a series of signal transduction, the expression of downstream luciferase is initiated, and the amount of its expression is positively correlated with the biological activity of GLP-1. After adding the luciferase substrate, the chemiluminescence assay is performed to determine the luminous intensity, thereby determining the biological activity of GLP-1.
96-well cell culture plate (white and opaque), DMEM medium (GIBCO), 0.05% TRYPSIN-EDTA (GIBCO), fetal bovine serum (GIBCO), G418, hygromycin B, Bright-Glo™ Luciferase Assay System Kit (Promega), and HEK293/CRE-luc/GLP1R cells.
(1) Cell preparation: the cells are cultured until they grow vigorously and reach a sufficient quantity, discarding the culture medium in the culture bottle, adding 3 ml of Versene solution and shaking once; then adding 2 ml of 0.05% TRYPSIN-EDTA digestion solution, covering the bottle and standing for 1 minute, and then adding 6 ml of the assay medium to quench the digestion; after centrifugation at 1000 r/min for 3 min, the supernatant is discarded, and the cells are resuspended in 5 ml of assay medium and counted on a hemacytometer. The cell density is adjusted to an appropriate range for later use by using DMEM assay medium.
(2) Sample preparation: the derivatives of different GLP-1 analogues in Table 1 are diluted to 20 ng/ml with the assay medium, then gradient diluted into 8 concentrations in 96-well plates, and using the assay medium instead of the sample as the cell blank control. 2 duplicate wells are made for each dilution concentration.
(3) Culturing with addition of the samples: the prepared solutions of the control and test samples are transferred to a 96-well cell culture plate (white board), adding 50 μl of the solution to each well; then adding the prepared cell suspension, adding 50 μl of the suspension to each well; and then incubating for a certain period of time under the conditions of 37° C. and 5% CO2.
(4) Chemiluminescence assay: substrate is added, then taking out the 96-well cell culture plate, adding 100 μl of Bright Glo reagent to each well, and leaving in the dark for 3 min.
(5) Reading: determination is performed with a chemiluminescence microplate reader SpectraMax L, then reading the plate within 30 min, and recording the determined results.

[2] = test system: db/db mice; test: Fasting blood glucose after single injection in type II diabetic db/db mice (FIG. 1); assay type: in vivo; settings: 0.05 mg/kg s.c. single
Experimental: The dosage is 0.05 mg/kg for each, and the administration time is set as 0 h. Fasting blood glucose is measured after fasting for 6-8 h every day, and the fasting blood glucose after administration is measured every day until the fasting blood glucose value of each animal of the test group recovers to the value measured before administration. The blood glucose value measured before administration is called the basal blood glucose value, and is set as 0. Change of the fasting blood glucose (Δ: delta)=Blood glucose value after administration-Basal blood glucose value before administration.

T1 sequence (P43220 24-463, species assumed): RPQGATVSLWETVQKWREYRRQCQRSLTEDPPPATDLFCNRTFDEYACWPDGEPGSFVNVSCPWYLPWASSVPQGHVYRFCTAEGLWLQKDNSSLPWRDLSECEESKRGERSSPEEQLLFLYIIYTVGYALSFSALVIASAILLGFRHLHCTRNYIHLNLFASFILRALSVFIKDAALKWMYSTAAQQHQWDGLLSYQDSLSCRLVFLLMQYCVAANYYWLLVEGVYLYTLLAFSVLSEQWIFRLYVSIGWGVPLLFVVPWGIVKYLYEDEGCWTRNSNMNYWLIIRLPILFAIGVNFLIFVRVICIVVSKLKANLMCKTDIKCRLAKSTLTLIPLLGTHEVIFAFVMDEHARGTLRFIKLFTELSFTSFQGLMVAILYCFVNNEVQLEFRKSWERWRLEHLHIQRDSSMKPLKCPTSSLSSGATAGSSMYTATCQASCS

SMILES | in vitro activities (comparison in words) [1] | glucose-lowing effect compared with Semaglutide (FIG. 1) ([2]; day 4 and day 5) | glucose-lowing effect compared with Semaglutide (FIG. 1) ([2]; day 2)
CC[C@H](C)[C@H](NC(=O)[C@H](Cc1ccccc1)NC(=O)[C@H](CCC(=O)O)NC(=O)[C@H](CCCNC(=N)N)NC(=O)[C@H](C)NC(=O)[C@H](C)NC(=O)[C@H](CCCCNC(=O)COCCOCCNC(=O)COCCOCCNC(=O)CC[C@H](NC(=O)CCCCCCCCCCCCCCCCC(=O)O)C(=O)O)NC(=O)[C@H](CCC(=O)O)NC(=O)[C@H](CCC(=O)O)NC(=O)[C@H](CC(C)C)NC(=O)[C@H](Cc1ccc(O)cc1)NC(=O)[C@H](CO)NC(=O)[C@H](CO)NC(=O)[C@@H](NC(=O)[C@H](CC(=O)O)NC(=O)[C@H](CO)NC(=O)[C@@H](NC(=O)[C@H](Cc1ccccc1)NC(=O)[C@@H](NC(=O)CNC(=O)[C@H](CCC(=O)O)NC(=O)[C@@H](NC(=O)[C@@H](N)Cc1c[nH]cn1)[C@@H](C)CC)[C@@H](C)O)[C@@H](C)O)C(C)C)C(=O)N[C@@H](C)C(=O)N[C@@H](Cc1c[nH]c2ccccc12)C(=O)N[C@@H](CC(C)C)C(=O)N[C@H](C(=O)N[C@@H](CCCNC(=N)N)C(=O)NCC(=O)N[C@@H](CCCNC(=N)N)C(=O)NCC(=O)O)C(C)C [M9, N-ε^23-[2-(2-[2-(2-[2-(2-[4-(17-carboxyheptadecanoylamino)-4(s)-carboxybutyrylamino]ethoxy)ethoxy]acetylamino)ethoxy]ethoxy)acetyl](Ile^8Glu^22Lys^23Arg^26,34-GLP-1 (7-37)) peptide] (H-HIEGTFTSDVSSYLEEK([AEEA-AEEA-γGlu-C18 diacid])AAREFIAWLVRGRG-OH; N-terminus and C-terminus assumed) | comparable | better than that of Semaglutide | 
CC[C@H](C)[C@H](NC(=O)[C@H](Cc1ccccc1)NC(=O)[C@H](CCC(=O)O)NC(=O)[C@H](CCCNC(=N)N)NC(=O)[C@H](C)NC(=O)[C@H](C)NC(=O)[C@H](CCCCNC(=O)COCCOCCNC(=O)COCCOCCNC(=O)CC[C@H](NC(=O)CCCCCCCCCCCCCCCCC(=O)O)C(=O)O)NC(=O)[C@H](CCC(=O)O)NC(=O)[C@H](CCC(=O)O)NC(=O)[C@H](CC(C)C)NC(=O)[C@H](Cc1ccc(O)cc1)NC(=O)[C@H](CO)NC(=O)[C@H](CO)NC(=O)[C@@H](NC(=O)[C@H](CC(=O)O)NC(=O)[C@H](CO)NC(=O)[C@@H](NC(=O)[C@H](Cc1ccccc1)NC(=O)[C@@H](NC(=O)CNC(=O)[C@H](CCC(=O)O)NC(=O)CNC(=O)[C@@H](N)Cc1c[nH]cn1)[C@@H](C)O)[C@@H](C)O)C(C)C)C(=O)N[C@@H](C)C(=O)N[C@@H](Cc1c[nH]c2ccccc12)C(=O)N[C@@H](CC(C)C)C(=O)N[C@H](C(=O)N[C@@H](CCCNC(=N)N)C(=O)NCC(=O)N[C@@H](CCCNC(=N)N)C(=O)NCC(=O)O)C(C)C [M11, N-ε^23-[2-(2-[2-(2-[2-(2-[4-(17-carboxyheptadecanoylamino)-4(s)-carboxybutyrylamino]ethoxy)ethoxy]acetylamino)ethoxy]ethoxy)acetyl](Gly^8Glu^22Lys^23Arg^26,34-GLP-1(7-37)) peptide] (H-HGEGTFTSDVSSYLEEK([AEEA-AEEA-γGlu-C18 diacid])AAREFIAWLVRGRG-OH; N-terminus and C-terminus assumed) | comparable |  | lower than that of Semaglutide
CC[C@H](C)[C@H](NC(=O)[C@H](Cc1ccccc1)NC(=O)[C@H](CCC(=O)O)NC(=O)[C@H](CCCNC(=N)N)NC(=O)[C@H](C)NC(=O)[C@H](C)NC(=O)[C@H](CCC(N)=O)NC(=O)[C@H](CCC(=O)O)NC(=O)[C@H](CCC(=O)O)NC(=O)[C@H](CC(C)C)NC(=O)[C@H](Cc1ccc(O)cc1)NC(=O)[C@H](CO)NC(=O)[C@H](CO)NC(=O)[C@@H](NC(=O)[C@H](CC(=O)O)NC(=O)[C@H](CO)NC(=O)[C@@H](NC(=O)[C@H](Cc1ccccc1)NC(=O)[C@@H](NC(=O)CNC(=O)[C@H](CCC(=O)O)NC(=O)[C@H](CO)NC(=O)[C@@H](N)Cc1c[nH]cn1)[C@@H](C)O)[C@@H](C)O)C(C)C)C(=O)N[C@@H](CCCCNC(=O)COCCOCCNC(=O)COCCOCCNC(=O)CC[C@H](NC(=O)CCCCCCCCCCCCCCCCC(=O)O)C(=O)O)C(=O)N[C@@H](Cc1c[nH]c2ccccc12)C(=O)N[C@@H](CC(C)C)C(=O)N[C@H](C(=O)N[C@@H](CCCNC(=N)N)C(=O)NCC(=O)N[C@@H](CCCNC(=N)N)C(=O)NCC(=O)O)C(C)C [M17, N-ε^30-[2-(2-[2-(2-[2-(2-[4-(17-carboxyheptadecanoylamino)-4(s)-carboxybutyrylamino]ethoxy)ethoxy]acetylamino)ethoxy]ethoxy)acetyl](Ser^8Glu^22Lys^30Arg^26,34-GLP-1(7-37)) peptide] (H-HSEGTFTSDVSSYLEEQAAREFIK([AEEA-AEEA-γGlu-C18 diacid])WLVRGRG-OH; N-terminus and C-terminus assumed) | comparable |  | lower than that of Semaglutide
CC[C@H](C)[C@H](NC(=O)[C@H](Cc1ccccc1)NC(=O)[C@H](CCC(=O)O)NC(=O)[C@H](CCCNC(=N)N)NC(=O)[C@H](C)NC(=O)[C@H](C)NC(=O)[C@H](CCC(N)=O)NC(=O)[C@H](CCC(=O)O)NC(=O)[C@H](CCC(=O)O)NC(=O)[C@H](CC(C)C)NC(=O)[C@H](Cc1ccc(O)cc1)NC(=O)[C@H](CO)NC(=O)[C@H](CO)NC(=O)[C@@H](NC(=O)[C@H](CC(=O)O)NC(=O)[C@H](CO)NC(=O)[C@@H](NC(=O)[C@H](Cc1ccccc1)NC(=O)[C@@H](NC(=O)CNC(=O)[C@H](CCC(=O)O)NC(=O)[C@@H](NC(=O)[C@@H](N)Cc1c[nH]cn1)[C@@H](C)CC)[C@@H](C)O)[C@@H](C)O)C(C)C)C(=O)N[C@@H](CCCCNC(=O)COCCOCCNC(=O)COCCOCCNC(=O)CC[C@H](NC(=O)CCCCCCCCCCCCCCCCC(=O)O)C(=O)O)C(=O)N[C@@H](Cc1c[nH]c2ccccc12)C(=O)N[C@@H](CC(C)C)C(=O)N[C@H](C(=O)N[C@@H](CCCNC(=N)N)C(=O)NCC(=O)N[C@@H](CCCNC(=N)N)C(=O)NCC(=O)O)C(C)C [M14, N-ε^30-[2-(2-[2-(2-[2-(2-[4-(17-carboxyheptadecanoylamino)-4(s)-carboxybutyrylamino]ethoxy)ethoxy]acetylamino)ethoxy]ethoxy)acetyl](Ile^8Glu^22Lys^30Arg^26,34-GLP-1(7-37)) peptide] (H-HIEGTFTSDVSSYLEEQAAREFIK([AEEA-AEEA-γGlu-C18 diacid])WLVRGRG-OH; N-terminus and C-terminus assumed) | comparable | better than that of Semaglutide | 
CC[C@H](C)[C@H](NC(=O)[C@H](Cc1ccccc1)NC(=O)[C@H](CCC(=O)O)NC(=O)[C@H](CCCNC(=N)N)NC(=O)[C@H](C)NC(=O)[C@H](C)NC(=O)[C@H](CCC(N)=O)NC(=O)[C@H](CCC(=O)O)NC(=O)[C@H](CCC(=O)O)NC(=O)[C@H](CC(C)C)NC(=O)[C@H](Cc1ccc(O)cc1)NC(=O)[C@H](CO)NC(=O)[C@H](CO)NC(=O)[C@@H](NC(=O)[C@H](CC(=O)O)NC(=O)[C@H](CO)NC(=O)[C@@H](NC(=O)[C@H](Cc1ccccc1)NC(=O)[C@@H](NC(=O)CNC(=O)[C@H](CCC(=O)O)NC(=O)CNC(=O)[C@@H](N)Cc1c[nH]cn1)[C@@H](C)O)[C@@H](C)O)C(C)C)C(=O)N[C@@H](CCCCNC(=O)COCCOCCNC(=O)COCCOCCNC(=O)CC[C@H](NC(=O)CCCCCCCCCCCCCCCCC(=O)O)C(=O)O)C(=O)N[C@@H](Cc1c[nH]c2ccccc12)C(=O)N[C@@H](CC(C)C)C(=O)N[C@H](C(=O)N[C@@H](CCCNC(=N)N)C(=O)NCC(=O)N[C@@H](CCCNC(=N)N)C(=O)NCC(=O)O)C(C)C [M16, N-ε^30-[2-(2-[2-(2-[2-(2-[4-(17-carboxyheptadecanoylamino)-4(s)-carboxybutyrylamino]ethoxy)ethoxy]acetylamino)ethoxy]ethoxy)acetyl](Gly^8Glu^22Lys^30Arg^26,34-GLP-1(7-37)) peptide] (H-HGEGTFTSDVSSYLEEQAAREFIK([AEEA-AEEA-γGlu-C18 diacid])WLVRGRG-OH; N-terminus and C-terminus assumed) | comparable |  | lower than that of Semaglutide
